Data as given in patent US5225410A, “Triazolyl hydrazide derivatives” (Egis Gyogyszergyar, priority 1989, dated 1993).

Legend:
[1] = system: mice; assay type: in vivo; settings: p.o., motility inhibiting effect
Experimental: Method: Borsy, J., Csanyi, E., Lazar, I.: Arch. Int. Pharmacodyn. 124, 1-2 (1960)
The tests were performed on mice. Groups consisting of 3 mice each were trated perorally with different doses of the compounds to be tested. One hour after the administration the test animals were placed in a Dews equipment. In this equipment the number of interruptions of infrared beam within 30 minutes was counted.

[2] = Acute toxicity on mice; settings: mouse, in vivo, po, observed 14 days
Experimental: Method: Litchfield, J. T., Wilcoxon, F. W.: Pharmacol. Exp. Ther., 96, 99 (1949)
White mice belonging to the CFLP strain (body weight 18 to 22 g, both male and female) were used, 6 animals for each dose. The test compounds were administered orally in a volume of 20 ml/kg. […] The mice were kept in a plastic cage at room temperature. The animals get tap water and standard mouse fodder ad libitum. The toxicity data were determined with the aid of the method of Litchfield and Wilcoxon.

[3] = system: Gastric-secretion and ulcus; assay: Stomach-secretion and ulcus tests (pylorus ligature); assay type: in vivo, Wistar rats; settings: 3 hours before operation
Experimental: Method: Shay, H., Komarov, S. A., Fels. S. S., Meranze, D., Gruenstein, M., Siplet, H.: Gastroenterology 5, 45 (1945); Adami, E., Marazzi-Ubertti, E., Tirba, C.: Arch. Int. Pharmacodyn. 147, 113 (1964)
Starved wistar […] of 150-250 g body weight were used, 4 male and 4 female animals for each dose. On the day of the experiment the pylorus of the animals was ligatured under ether narcosis. The doses of the test compounds were administered per os, 3 hours before the operation. The control groups were treated with the carrier in identical way. 4 hours after the operation the animals were over-narcotized with ether, their stomach was removed, the stomach contents were separated and after centrifugation the volume of the gastric juices was measured, then their free-acid content and total acidity, resp., were determined by titration with 0.1N NaOH solution. The changes of the gastric mucous membrane were investigated macroscopically and characterized by an ulcus index determined with the aid of the punctuation method of Adami and coworkers.

[4] = system: Pseudomonas stutzeri; assay: Antimicrobial effect, agar diffusion method; assay type: cell-based; settings: HNCMB 173008; 500/μg/hole
Description: (§1) In addition, the compounds according to the invention posses valuable antimicrobial effect, especially against nonfermenting Gram-negative bacteria strains.

[5] = system: Salmonella enteritidus; assay: Antimicrobial effect, agar diffusion method; assay type: cell-based; settings: HNCMB 10091; 500/μg/hole
Description: as §1

[6] = system: Pseudomonas aeruginosa; assay: Antimicrobial effect, agar diffusion method; assay type: cell-based; settings: HNCMB 170006; 500/μg/hole
Description: as §1

[7] = system: Shigella sonnei; assay: Antimicrobial effect, agar diffusion method; assay type: cell-based; settings: HNCMB 20046; 500/μg/hole
Description: as §1

[8] = system: Alcaligenea faecalis; assay: Antimicrobial effect, agar diffusion method; assay type: cell-based; settings: HNCMB 140001; 500/μg/hole
Description: as §1

[9] = system: Acinetobacter calcoaceticus; assay: Antimicrobial effect, agar diffusion method; assay type: cell-based; settings: HNCMB 150001; 500/μg/hole
Description: as §1

[10] = system: experimental coronaria insufficiency; assay: Antianginal effect (vasopressin-induced experimental coronaria insufficiency, ECG wave T); assay type: in vivo; settings: Rattus norvegicus; rats, iv., 2 minutes prior to vasopressin
Experimental: The test was carried out on rats weighing 180 to 220 g. The animals were narcotised with chloralese-urethane (70-700 mg/kg ip.). The ECG was registered with needle electrodes in standard II leading. The experimental coronaria insufficiency was induced with vasopressin (1 NE/kg i.v.). The height of wave T was measured before and after the administration of vasopressin in both the control and treated groups.

CN(N)C(=S)n1nc(N2CCOCC2)nc1N [Example 1, 1-(5-Amino-3-morpholino-1H-1,2,4-triazol-1-yl)-N-methyl-carbothiohydrazide]
Therapeutical index [1]: > 10
LD50 at 336 h [2]: > 1000 mg/kg

CNN(C)C(=S)n1nc(N2CCOCC2)nc1N [Example 20, 1-(5-Amino-3-morpholino-1H-1,2,4-triazol-1-yl)-N,N'-dimethyl-carbothiohydrazide]
Inhibition related to the control in %, free acid ([3]; 50 mg/kg po.): 46%
Inhibition related to the control in %, gastric juice ([3]; 50 mg/kg po.): 36%
Inhibition related to the control in %, total acidity ([3]; 50 mg/kg po.): 36%
Inhibition related to the control in %, ulcus index ([3]; 50 mg/kg po.): 39%
Inhibition related to the control in %, free acid ([3]; 200 mg/kg po.): 91%
Inhibition related to the control in %, gastric juice ([3]; 200 mg/kg po.): 58%
Inhibition related to the control in %, total acidity ([3]; 200 mg/kg po.): 78%
Inhibition related to the control in %, ulcus index ([3]; 200 mg/kg po.): 70%
LD50 at 336 h [2]: 1000 mg/kg

CN1CCN(c2nc(N)n(C(=S)N(C)N)n2)CC1 [Example 9]
LD50 at 336 h [2]: 1000 mg/kg
Inhibition (%) [4]: 25%
Inhibition (%) [5]: 17%
Inhibition (%) [6]: 14%
Inhibition (%) [7]: 19%
Inhibition (%) [8]: 23%
Inhibition (%) [9]: 20%

CC(Cc1ccccc1)NCCC(c1ccccc1)c1ccccc1 (centres unmarked) [Prenylamine, reference compound]
ED50 [10]: 6.5 mg/kg

CCCC(C)(COC(N)=O)COC(N)=O [Meprobamate, reference compound]
Therapeutical index [1]: 4.1

CSc1nc(N)n(C(=S)N(C)N)n1 [Example 4, 1-(5-Amino-3-methylthio-1H-1,2,4-triazol-1-yl)-N-methyl-carbothiohydrazide]
Inhibition related to the control in %, free acid ([3]; 60 mg/kg po.): 60%
Inhibition related to the control in %, gastric juice ([3]; 60 mg/kg po.): 41%
Inhibition related to the control in %, total acidity ([3]; 60 mg/kg po.): 50%
Inhibition related to the control in %, ulcus index ([3]; 60 mg/kg po.): 67%
LD50 at 336 h [2]: 300 mg/kg

NNC(=S)n1nc(N2CCOCC2)nc1N [Example 16, 1-(5-Amino-3-morpholino-1H-1,2,4-triazol-1-yl)carbothiohydrazide]
LD50 at 336 h [2]: 1000 mg/kg
ED50 [10]: 0.7 mg/kg

CSc1nc(N)n(C(=S)NN)n1 [Example 17, 1-(5-Amino-3-methylthio-1H-1,2,4-triazol-1-yl)carbothiohydrazide]
Therapeutical index [1]: ~ 5
LD50 at 336 h [2]: 350 mg/kg
ED50 [10]: 0.84 mg/kg

CN/C(=N/CCSCc1nc[nH]c1C)NC#N [Cimetidine, reference compound]
Inhibition related to the control in %, free acid ([3]; 50 mg/kg po.): 24%
Inhibition related to the control in %, gastric juice ([3]; 50 mg/kg po.): 22%
Inhibition related to the control in %, total acidity ([3]; 50 mg/kg po.): 15%
Inhibition related to the control in %, ulcus index ([3]; 50 mg/kg po.): 18%
Inhibition related to the control in %, free acid ([3]; 200 mg/kg po.): 91%
Inhibition related to the control in %, gastric juice ([3]; 200 mg/kg po.): 59%
Inhibition related to the control in %, total acidity ([3]; 200 mg/kg po.): 71%
Inhibition related to the control in %, ulcus index ([3]; 200 mg/kg po.): 72%
